{
  "source": "ChEMBL document CHEMBL1201862",
  "about": "“PubChem BioAssay data set” (2004)",
  "assay_in_all_cases": "NCI-60 cell line screen, 48 h",
  "key": {"UO-31": {"system": "UO-31"}, "SF-539": {"system": "SF-539"}, "SN12C": {"system": "SN12C"}, "SNB-75": {"system": "SNB-75"}, "SR": {"system": "SR"}, "LOX IMVI": {"system": "LOX IMVI"}, "KM12": {"system": "KM12"}, "NCI-H23": {"system": "NCI-H23"}, "A498": {"system": "A498"}, "SNB-19": {"system": "SNB-19"}, "U-251": {"system": "U-251"}, "HCT-15": {"system": "HCT-15"}, "OVCAR-4": {"system": "OVCAR-4"}, "SK-MEL-2": {"system": "SK-MEL-2"}, "A549": {"system": "A549"}, "SK-OV-3": {"system": "SK-OV-3"}, "MDA-MB-435": {"system": "MDA-MB-435"}, "DU-145": {"system": "DU-145"}, "PC-3": {"system": "PC-3"}, "MDA-N": {"system": "MDA-N"}},
  "note": "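Growth conditions: 96-well plates. Treatment: test compound, 48 hours, 5 concentrations. Analysis: linear interpolation between bracketing concentrations; unreached endpoints set to highest concentration. At the GI50, growth is halved.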 Activity calls are given as the source filed them. No stated cut-off is given here; in the data, active = GI50 up to about 1.1 µM and inactive = higher.",
  "data": [
    {"smiles": "O=C1CCC2(c3ccc(F)cc3)Nc3cc(Cl)ccc3N12", "note": "(stereo not drawn)", "values": [
      {"measurement": "GI50", "setting": "UO-31", "value": "94.2 µM (inactive)"},
      {"measurement": "GI50", "setting": "SF-539", "value": "> 100 µM (inactive)"},
      {"measurement": "GI50", "setting": "SN12C", "value": "> 100 µM (inactive)"},
      {"measurement": "GI50", "setting": "SNB-75", "value": "> 100 µM (inactive)"},
      {"measurement": "GI50", "setting": "SR", "value": "43.4 µM (inactive)"},
      {"measurement": "GI50", "setting": "LOX IMVI", "value": "> 100 µM (inactive)"},
      {"measurement": "GI50", "setting": "KM12", "value": "> 100 µM (inactive)"},
      {"measurement": "GI50", "setting": "NCI-H23", "value": "38.3 µM (inactive)"},
      {"measurement": "GI50", "setting": "A498", "value": "> 100 µM (inactive)"},
      {"measurement": "GI50", "setting": "SNB-19", "value": "> 100 µM (inactive)"},
      {"measurement": "GI50", "setting": "U-251", "value": "> 100 µM (inactive)"},
      {"measurement": "GI50", "setting": "HCT-15", "value": "> 100", "unit": "µM"},
      {"measurement": "GI50", "setting": "OVCAR-4", "value": "48.6 µM (inactive)"},
      {"measurement": "GI50", "setting": "SK-MEL-2", "value": "> 100 µM (inactive)"},
      {"measurement": "GI50", "setting": "A549", "value": "59.4 µM (inactive)"},
      {"measurement": "GI50", "setting": "SK-OV-3", "value": "> 100 µM (inactive)"}
    ]},
    {"smiles": "COc1cnc2oc3ccc(O)cc3c2c1-c1ccccc1", "values": [
      {"measurement": "GI50", "setting": "UO-31", "value": "66.7 µM (inactive)"},
      {"measurement": "GI50", "setting": "SF-539", "value": "> 100 µM (inactive)"},
      {"measurement": "GI50", "setting": "MDA-MB-435", "value": "> 100 µM (inactive)"},
      {"measurement": "GI50", "setting": "SN12C", "value": "> 100 µM (inactive)"},
      {"measurement": "GI50", "setting": "SNB-75", "value": "> 100 µM (inactive)"},
      {"measurement": "GI50", "setting": "LOX IMVI", "value": "> 100 µM (inactive)"},
      {"measurement": "GI50", "setting": "DU-145", "value": "> 100 µM (inactive)"},
      {"measurement": "GI50", "setting": "KM12", "value": "83.2 µM (inactive)"},
      {"measurement": "GI50", "setting": "NCI-H23", "value": "44.7 µM (inactive)"},
      {"measurement": "GI50", "setting": "PC-3", "value": "> 100 µM (inactive)"},
      {"measurement": "GI50", "setting": "A498", "value": "> 100 µM (inactive)"},
      {"measurement": "GI50", "setting": "U-251", "value": "> 100 µM (inactive)"},
      {"measurement": "GI50", "setting": "HCT-15", "value": "> 100", "unit": "µM"},
      {"measurement": "GI50", "setting": "OVCAR-4", "value": "> 100 µM (inactive)"},
      {"measurement": "GI50", "setting": "SK-MEL-2", "value": "> 100 µM (inactive)"},
      {"measurement": "GI50", "setting": "A549", "value": "> 100 µM (inactive)"},
      {"measurement": "GI50", "setting": "SK-OV-3", "value": "> 100 µM (inactive)"}
    ]},
    {"smiles": "COC(=O)N/N=C(/CCN1CCCC1)CC(c1ccccc1)c1c(O)c2ccccc2oc1=O", "note": "(stereo not drawn)", "values": [
      {"measurement": "GI50", "setting": "UO-31", "value": "61.4 µM (inactive)"},
      {"measurement": "GI50", "setting": "SF-539", "value": "> 100 µM (inactive)"},
      {"measurement": "GI50", "setting": "SN12C", "value": "> 100 µM (inactive)"},
      {"measurement": "GI50", "setting": "SNB-75", "value": "30.1 µM (inactive)"},
      {"measurement": "GI50", "setting": "SR", "value": "> 100 µM (inactive)"},
      {"measurement": "GI50", "setting": "LOX IMVI", "value": "> 100 µM (inactive)"},
      {"measurement": "GI50", "setting": "KM12", "value": "> 100 µM (inactive)"},
      {"measurement": "GI50", "setting": "NCI-H23", "value": "> 100 µM (inactive)"},
      {"measurement": "GI50", "setting": "A498", "value": "> 100 µM (inactive)"},
      {"measurement": "GI50", "setting": "SNB-19", "value": "> 100 µM (inactive)"},
      {"measurement": "GI50", "setting": "U-251", "value": "> 100 µM (inactive)"},
      {"measurement": "GI50", "setting": "HCT-15", "value": "> 100", "unit": "µM"},
      {"measurement": "GI50", "setting": "OVCAR-4", "value": "> 100 µM (inactive)"},
      {"measurement": "GI50", "setting": "SK-MEL-2", "value": "> 100 µM (inactive)"},
      {"measurement": "GI50", "setting": "A549", "value": "> 100 µM (inactive)"},
      {"measurement": "GI50", "setting": "SK-OV-3", "value": "> 100 µM (inactive)"}
    ]},
    {"smiles": "COC(=O)CCCC(=O)NC1=C(Nc2ccccc2)C(=O)c2ccccc2C1=O", "values": [
      {"measurement": "GI50", "setting": "UO-31", "value": "21.2 µM (inactive)"},
      {"measurement": "GI50", "setting": "SF-539", "value": "18.6 µM (inactive)"},
      {"measurement": "GI50", "setting": "MDA-MB-435", "value": "5.51 µM (inactive)"},
      {"measurement": "GI50", "setting": "SN12C", "value": "18 µM (inactive)"},
      {"measurement": "GI50", "setting": "SNB-75", "value": "18.4 µM (inactive)"},
      {"measurement": "GI50", "setting": "SR", "value": "30.2 µM (inactive)"},
      {"measurement": "GI50", "setting": "LOX IMVI", "value": "17.4 µM (inactive)"},
      {"measurement": "GI50", "setting": "DU-145", "value": "15.2 µM (inactive)"},
      {"measurement": "GI50", "setting": "KM12", "value": "5.24 µM (inactive)"},
      {"measurement": "GI50", "setting": "MDA-N", "value": "3.89 µM (inactive)"},
      {"measurement": "GI50", "setting": "NCI-H23", "value": "10.6 µM (inactive)"},
      {"measurement": "GI50", "setting": "A498", "value": "16.9 µM (inactive)"},
      {"measurement": "GI50", "setting": "SNB-19", "value": "18.2 µM (inactive)"},
      {"measurement": "GI50", "setting": "U-251", "value": "14.4 µM (inactive)"},
      {"measurement": "GI50", "setting": "HCT-15", "value": 15.1, "unit": "µM"},
      {"measurement": "GI50", "setting": "OVCAR-4", "value": "19.3 µM (inactive)"},
      {"measurement": "GI50", "setting": "SK-MEL-2", "value": "18.1 µM (inactive)"},
      {"measurement": "GI50", "setting": "A549", "value": "19.5 µM (inactive)"},
      {"measurement": "GI50", "setting": "SK-OV-3", "value": "22.5 µM (inactive)"}
    ]}
  ]
}
